Measurements taken from patent publication US7964531B2, “3-phenoxy-4-pyridazinol derivatives and herbicidal composition containing the same” (Mitsui Chemicals Agro, Inc., priority 2001, dated 2011).
Counter-ions that a name gives are not always drawn.

Row | melting point [°C] | SMILES
1 | 151 to 152 | CN(C)S(=O)(=O)n1nccc1-c1ccccc1Oc1nnc(Cl)cc1O [Compound No. 369, 5-{2-[(6-Chloro-4-hydroxy-3-pyridazinyl)oxy]phenyl}N,N-dimethyl-1H-pyrazole-1-sulfonamide]
2 | 140 to 143 | Cc1ccc(S(=O)(=O)Oc2c(Cl)cnnc2Oc2ccccc2C)cc1 (as salt: benzene sulfonate) [Compound No. 66, 5-Chloro-3-(2-methylphenoxy)-4-pyridazinyl 4-methylbenzene sulfonate]
3 | 118 to 120 | Cc1cc(OC(=O)c2ccccc2)ccc1Oc1nnc(Cl)cc1OC(=O)c1ccccc1 [Compound No. 3850, 4-{[4-(Benzoyloxy)-6-chloro-3-pyridazinyl]oxy}-3-methylphenyl benzoate]
4 | 125.5 to 126.5 | Cc1ccc(S(=O)(=O)Oc2ccccc2Oc2nnc(Cl)cc2OS(=O)(=O)c2ccc(C)cc2)cc1 (as salt: benzene sulfonate) [Compound No. 2233, 2-[(6-Chloro-4-{[(4-methylphenyl)sulfonyl]oxy}-3-pyridazinyl)oxy]phenyl 4-methylbenzene sulfonate]
5 | 185 to 187 | Oc1cc(Cl)nnc1Oc1ccccc1Cc1ccccc1 [Compound No. 315, 3-(2-Benzylphenoxy)-6-chloro-4-pyridazinol]
6 | 157 to 158 | Cc1ccccc1Oc1nnc(Cl)cc1OC(=O)c1ccccc1C(=O)Oc1cc(Cl)nnc1Oc1ccccc1C [Compound No. 2827, Bis[6-chloro-3-(2-methylphenoxy)-4-pyridazinyl]phthalate]
7 | 216 to 217 | Oc1cc(Cl)nnc1Oc1ccccc1I [Compound No. 127, 6-Chloro-3-(2-iodophenoxy)-4-pyridazinol]
8 | 170 to 180 | Oc1cc(Cl)nnc1Oc1ccc(OCc2ccccc2)cc1 [Compound No. 2548, 3-[4-(Benzyloxy)phenoxy]-6-chloro-4-pyridazinol]
9 | 259 to 260 | Cc1cc(O)c(Oc2ccccc2C(C)C)nn1 [Compound No. 2418, 3-(2-Isopropylphenoxy)-6-methyl-4-pyridazinol]
10 | 208 to 212 | Oc1cc(Cl)nnc1Oc1ccccc1Cl [Compound No. 125, 6-Chloro-3-(2-chlorophenoxy)-4-pyridazinol]
11 | 210 to 212 | CN(C)S(=O)(=O)n1ccc(-c2ccccc2Oc2nnc(Cl)cc2O)n1 [Compound No. 368, 3-{2-[(6-Chloro-4-hydroxy-3-pyridazinyl)oxy]phenyl}N,N-dimethyl-1H-pyrazole-1-sulfonamide]
12 | 215 to 217 | Oc1cc(Cl)nnc1Oc1ccccc1-c1nc2ccccc2s1 [Compound No. 376, 3-[2-(1,3-Benzothiazol-2-yl)phenoxy]-6-chloro-4-pyridazinol]
13 | 218 to 225 | Cc1coc2cccc(Oc3nnc(Cl)cc3O)c12 [Compound No. 532, 6-Chloro-3-[(3-methyl-1-benzofuran-4-yl)oxy]-4-pyridazinol]
14 | 168 to 174 | Cc1cccc(C2CC2)c1Oc1nnc(Cl)cc1OC(=O)c1cc(Cl)cc(Cl)c1 [Compound No. 3226, 6-Chloro-3-(2-cyclopropyl-6-methylphenoxy)-4-pyridazinyl 3,5-dichlorobenzoate]
15 | 170 to 172 | COc1ccc(C)c(Oc2nnc(Cl)cc2O)c1 [Compound No. 629, 6-Chloro-3-(5-methoxy-2-methylphenoxy)-4-pyridazinol]
16 | 238 to 240 | Cc1ccc(C(=O)O)cc1Oc1nnc(Cl)cc1O [Compound No. 626, 3-[(6-Chloro-4-hydroxy-3-pyridazinyl)oxy]-4-methylbenzoic acid]
17 | 157 to 159 | Cc1cccc(C2CC2)c1Oc1nnc(Cl)cc1OC(=O)n1c2ccccc2c2ccccc21 [Compound No. 3714, 6-Chloro-3-(2-cyclopropyl-6-methylphenoxy)-4-pyridazinyl 9H-carbazole-9-carboxylate]
18 | 193 to 195 | Cc1ccc(C(C)C)c(Oc2nnc(Cl)cc2O)c1 [Compound No. 640, 6-Chloro-3-(2-isopropyl-5-methylphenoxy)-4-pyridazinol]
19 | 150 to 159 | Cc1ccc(C2CC2)c(Oc2nnc(Cl)cc2O)c1 [Compound No. 662, 6-Chloro-3-(2-cyclopropyl-5-methylphenoxy)-4-pyridazinol]
20 | 197 to 198 | Cc1ccccc1Oc1nnc(Br)cc1O [Compound No. 2411, 6-Bromo-3-(2-methylphenoxy)-4-pyridazinol]
21 | 175 to 177 | Oc1cc(Cl)nnc1Oc1ccccc1C1CC1(F)Cl (centres unmarked) [Compound No. 2519, 6-Chloro-3-[2-(2-chloro-2-fluorocyclopropyl)phenoxy]-4-pyridazinol]
22 | 190 to 194 | COc1cccc(F)c1Oc1nnc(Cl)cc1O [Compound No. 732, 6-Chloro-3-(2-fluoro-6-methoxyphenoxy)-4-pyridazinol]
23 | 241 to 248 | Oc1cc(Cl)nnc1Oc1ccc(F)cc1 [Compound No. 426, 6-Chloro-3-(4-fluorophenoxy)-4-pyridazinol]
24 | 191 to 200 | Cc1cccc(Oc2nnc(Cl)cc2O)c1[N+](=O)[O-] [Compound No. 498, 6-Chloro-3-(3-methyl-2-nitrophenoxy)-4-pyridazinol]
25 | 182 to 185 | CC(=O)c1cc(O)c(Oc2ccccc2C)nn1 [Compound No. 2455, 1-[5-Hydroxy-6-(2-methylphenoxy)-3-pyridazinyl]ethanone]
26 | 149.5 to 150 | CCCCc1ccccc1Oc1nnc(Cl)cc1O [Compound No. 133, 3-(2-Butylphenoxy)-6-chloro-4-pyridazinol]
27 | 80 to 83 | Cc1ccc(C)c(Oc2nnc(Cl)cc2O)c1 [Compound No. 621, 6-Chloro-3-(2,5-dimethylphenoxy)-4-pyridazinol]

The remaining lines, values behind:

Row | SMILES | melting point [°C]
28 | Cc1ccccc1Oc1nnc(C2CC2)cc1O [Compound No. 2423, 6-Cyclopropyl-3-(2-methylphenoxy)-4-pyridazinol] | 214 to 215
29 | CCCCCCCCCCCCCCC(=O)Oc1cc(Cl)nnc1Oc1c(C)cccc1C1CC1 [Compound No. 1260, 6-Chloro-3-(2-cyclopropyl-6-methylphenoxy)-4-pyridazinyl pentadecanoate] | 35 to 37
30 | Cc1c([N+](=O)[O-])ccc(C2CC2)c1Oc1nnc(Cl)cc1O [Compound No. 2589, 6-Chloro-3-(6-cyclopropyl-2-methyl-3-nitrophenoxy)-4-pyridazinol] | 140 to 143
31 | CON=C(C)c1ccc(Oc2nnc(Cl)cc2O)c(C)c1 [Compound No. 2571, 1-{4-[(6-Chloro-4-hydroxy-3-pyridazinyl)oxy]-3-methylphenyl}ethanone O-methyloxime] | 189 to 192
32 | Cc1c(Br)ccc(C2CC2)c1Oc1nnc(Cl)cc1O [Compound No. 2587, 3-(3-Bromo-6-cyclopropyl-2-methylphenoxy)-6-chloro-4-pyridazinol] | 234 to 235
33 | CCCc1cccc(F)c1Oc1nnc(Cl)cc1O [Compound No. 716, 6-Chloro-3-(2-fluoro-6-propylphenoxy)-4-pyridazinol] | 134 to 137
34 | Oc1cc(Cl)nnc1Oc1cccc(C(F)(F)F)c1F [Compound No. 441, 6-Chloro-3-[2-fluoro-3-(trifluoromethyl)phenoxy]-4-pyridazinol] | 185 to 189
35 | CCc1cc(I)cc(I)c1Oc1nnc(Cl)cc1O [Compound No. 1120, 6-Chloro-3-(2-ethyl-4,6-diiodophenoxy)-4-pyridazinol] | 142 to 144
36 | Oc1cc(Cl)nnc1Oc1cccc2c1CCC2 [Compound No. 506, 6-Chloro-3-(2,3-dihydro-1H-inden-4-yloxy)-4-pyridazinol] | 230 to 232
37 | Cc1ccc(N(C)C)cc1Oc1nnc(Cl)cc1O [Compound No. 628, 6-Chloro-3-[5-(dimethylamino)-2-methylphenoxy]-4-pyridazinol] | 181 to 182
38 | CCc1cccc(CC)c1Oc1nnc(Cl)cc1O [Compound No. 846, 6-Chloro-3-(2,6-diethylphenoxy)-4-pyridazinol] | 181 to 185
39 | CN(C)C(=O)Oc1cc(Cl)nnc1Oc1ccccc1C1CC1 | 137 to 138
40 | Cc1cccc(C(C)(C)C)c1Oc1nnc(Cl)cc1O [Compound No. 805, 3-(2-tert-Butyl-6-methylphenoxy)-6-chloro-4-pyridazinol] | 135 to 136
41 | Cc1cccc(C2CC2)c1Oc1nnc(Cl)cc1C(=O)[O-].[K+] | 187 to 189
42 | CN(C)c1ccc(C=O)c(Oc2nnc(Cl)cc2O)c1 [Compound No. 692, 2-[(6-Chloro-4-hydroxy-3-pyridazinyl)oxy]-4-(dimethylamino)benzaldehyde] | 124 to 127
43 | CC(C)c1cccc(Oc2nnc(Cl)cc2O)c1 [Compound No. 415, 6-Chloro-3-(3-isopropylphenoxy)-4-pyridazinol] | 176 to 177
44 | Cc1ccc(Br)c(Oc2nnc(Cl)cc2O)c1C [Compound No. 1058, 3-(6-Bromo-2,3-dimethylphenoxy)-6-chloro-4-pyridazinol] | 263 to 268
45 | CC(C)(C)c1cccc(Oc2nnc(Cl)cc2O)c1 [Compound No. 416, 3-(3-tert-Butylphenoxy)-6-chloro-4-pyridazinol] | 203 to 207
46 | Nc1ccccc1OC1(Cl)NN=CC=C1O (centres unmarked) [Compound No. 377, 3-(2-Aminophenoxy)-3-chloro-4-pyridazinol] | 249 to 250
47 | Cc1cccc(Br)c1Oc1nnc(Cl)cc1O [Compound No. 758, 3-(2-Bromo-6-methylphenoxy)-6-chloro-4-pyridazinol] | 242 to 243
48 | CCc1ccc2c(c1Oc1nnc(Cl)cc1O)CCC2 [Compound No. 1089, 6-Chloro-3-[(5-ethyl-2,3-dihydro-1H-inden-4-yl)oxy]-4-pyridazinol] | 193 to 196
49 | Cc1ccccc1Oc1nncc(Cl)c1O [Compound No. 45, 5-Chloro-3-(2-methylphenoxy)-4-pyridazinol] | 238 to 243
50 | Cc1c(F)ccc(C2CC2)c1Oc1nnc(Cl)cc1O [Compound No. 1052, 6-Chloro-3-(6-cyclopropyl-3-fluoro-2-methylphenoxy)-4-pyridazinol] | 230 to 231
